Measured values: patent publication US10301295B2, “Herbicidal compounds” (Syngenta Participations AG, priority 2014, dated 2019)
Read-outs that look alike come from different tables or passages of the source.

Columns and labels:
Assay type in all cases: in vivo
[1] = tested on: Alopecurus myosuroides (ALOMY); assay: Glasshouse assay for herbicidal activity, pre-/post-emergence (percentage phytotoxicity); conditions: Alopecurus myosuroides, Rate 250 g/ha, 100%=total damage, 0%=no damage
In short: (§1)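 Visual score (0–100% damage) at 15DAA post-em / 20DAA pre-em. Pots, std soil; treated 1 d (pre) or ~12 d (post) after sowing. 24/18 °C warm spp., 20/16 °C cool spp., 16 h light, 65% RH.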

Avena fatua (AVEFA) = assay: as above; conditions: Avena fatua, Rate 250 g/ha, 100%=total damage, 0%=no damage
In short: as §1

[2] = tested on: Echinochloa crus-galli (ECHCG); assay: as above; conditions: Echinochloa crus-galli, Rate 250 g/ha, 100%=total damage, 0%=no damage
In short: as §1

Lolium perenne (LOLPE) = assay: as above; conditions: Lolium perenne, Rate 250 g/ha, 100%=total damage, 0%=no damage
In short: as §1

wheat = assay: Post-emergence herbicidal activity against cereal crops (wheat) +/- safener, crop selectivity; conditions: 100%=total damage to plant, 0%=no damage; for Post-emergence herbicidal activity against wheat (percentage phytotoxicity), +CQC: 250 g/ha, plus safener cloquintocet-mexyl (CQC) applied at 50 g/ha; for percent phytotoxicity (crop damage) to wheat at 250 g/ha: Triticum aestivum, 360 h, without safener, read-out: Post-emergence herbicidal activity against wheat (percentage phytotoxicity), Wheat - CQC
In short: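 Test plants raised in pots in a glasshouse (24/18 °C warm or 20/16 °C cool species day/night, 16 h light, 65% humidity) and treated post-emergence about 12 days after sowing. Visual percentage phytotoxicity scored 15 days after application (0% = no damage, 100% = total damage).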

[3] = 360 h, post-emergence, visual assessment 15 DAA, read-out: Post-emergence herbicidal activity (percentage phytotoxicity), ALOMY POST
[4] = 480 h, pre-emergence, visual assessment 20 DAA, read-out: Pre-emergence herbicidal activity (percentage phytotoxicity), ALOMY PRE
[5] = post-emergence, 360 h, post-emergence, visual assessment 15 DAA, read-out: Post-emergence herbicidal activity (percentage phytotoxicity), AVEFA POST
[6] = pre-emergence, 480 h, pre-emergence, visual assessment 20 DAA, read-out: Pre-emergence herbicidal activity (percentage phytotoxicity), AVEFA PRE
[7] = post-emergence, 360 h, post-emergence, visual assessment 15 DAA, read-out: Post-emergence herbicidal activity (percentage phytotoxicity), ECHCG POST
[8] = pre-emergence, 480 h, pre-emergence, visual assessment 20 DAA, read-out: Pre-emergence herbicidal activity (percentage phytotoxicity), ECHCG PRE
[9] = post-emergence, 360 h, post-emergence, visual assessment 15 DAA, read-out: Post-emergence herbicidal activity (percentage phytotoxicity), LOLPE POST
[10] = pre-emergence, 480 h, pre-emergence, visual assessment 20 DAA, read-out: Pre-emergence herbicidal activity (percentage phytotoxicity), LOLPE PRE

Cc1cc(C)c(C2C(=O)CC(CCNS(=O)(=O)c3ccc(Cl)cc3Cl)C2=O)c(C)c1 (centres unmarked) [Compound A84]
pest or weed control at 250 g/ha [1, 3]: 30%
pest or weed control at 250 g/ha [1, 4]: 50%
pest or weed control at 250 g/ha (Avena fatua (AVEFA); [5]): 80%
pest or weed control at 250 g/ha (Avena fatua (AVEFA); [6]): 10%
pest or weed control at 250 g/ha [2, 7]: 50%
pest or weed control at 250 g/ha [2, 8]: 30%
pest or weed control at 250 g/ha (Lolium perenne (LOLPE); [9]): 70%
pest or weed control at 250 g/ha (Lolium perenne (LOLPE); [10]): 50%
Post-emergence herbicidal activity against wheat (percentage phytotoxicity), +CQC (wheat): 0%
percent phytotoxicity (crop damage) to wheat at 250 g/ha (wheat): 0%

Cc1cc(C)c(C2C(=O)CC(CCNC(=O)Nc3ncccn3)C2=O)c(C)c1 (centres unmarked) [Compound A30]
pest or weed control at 250 g/ha [1, 3]: 90%
pest or weed control at 250 g/ha [1, 4]: 80%
pest or weed control at 250 g/ha (Avena fatua (AVEFA); [5]): 80%
pest or weed control at 250 g/ha (Avena fatua (AVEFA); [6]): 80%
pest or weed control at 250 g/ha [2, 7]: 90%
pest or weed control at 250 g/ha [2, 8]: 60%
pest or weed control at 250 g/ha (Lolium perenne (LOLPE); [9]): 80%
pest or weed control at 250 g/ha (Lolium perenne (LOLPE); [10]): 90%
Post-emergence herbicidal activity against wheat (percentage phytotoxicity), +CQC (wheat): 40%
percent phytotoxicity (crop damage) to wheat at 250 g/ha (wheat): 70%

Cc1cc(-c2ncc(Cl)cc2F)cc(C)c1C1C(=O)CC(CCNC(=O)N(C)c2ccccn2)C1=O.Cl (centres unmarked) [Compound A27]
pest or weed control at 250 g/ha [1, 3]: 90%
pest or weed control at 250 g/ha [1, 4]: 60%
pest or weed control at 250 g/ha (Avena fatua (AVEFA); [5]): 90%
pest or weed control at 250 g/ha (Avena fatua (AVEFA); [6]): 90%
pest or weed control at 250 g/ha [2, 7]: 100%
pest or weed control at 250 g/ha [2, 8]: 90%
pest or weed control at 250 g/ha (Lolium perenne (LOLPE); [9]): 100%
pest or weed control at 250 g/ha (Lolium perenne (LOLPE); [10]): 90%
Post-emergence herbicidal activity against wheat (percentage phytotoxicity), +CQC (wheat): 70%
percent phytotoxicity (crop damage) to wheat at 250 g/ha (wheat): 80%

Cc1cc(C)c(C2C(=O)CC(CCNS(=O)(=O)c3ccc(C(F)(F)F)cc3)C2=O)c(C)c1 (centres unmarked) [Compound A74]
pest or weed control at 250 g/ha [1, 3]: 50%
pest or weed control at 250 g/ha [1, 4]: 70%
pest or weed control at 250 g/ha (Avena fatua (AVEFA); [6]): 90%
pest or weed control at 250 g/ha [2, 7]: 60%
pest or weed control at 250 g/ha [2, 8]: 70%
pest or weed control at 250 g/ha (Lolium perenne (LOLPE); [9]): 60%
pest or weed control at 250 g/ha (Lolium perenne (LOLPE); [10]): 70%
Post-emergence herbicidal activity against wheat (percentage phytotoxicity), +CQC (wheat): 0%
percent phytotoxicity (crop damage) to wheat at 250 g/ha (wheat): 10%

CON=C(C)C(=O)NCCC1CC(=O)C(c2c(C)cc(C)cc2C)C1=O (centres unmarked) [Compound A39]
pest or weed control at 250 g/ha [1, 3]: 80%
pest or weed control at 250 g/ha [1, 4]: 80%
pest or weed control at 250 g/ha (Avena fatua (AVEFA); [5]): 80%
pest or weed control at 250 g/ha (Avena fatua (AVEFA); [6]): 50%
pest or weed control at 250 g/ha [2, 7]: 50%
pest or weed control at 250 g/ha [2, 8]: 30%
pest or weed control at 250 g/ha (Lolium perenne (LOLPE); [9]): 100%
pest or weed control at 250 g/ha (Lolium perenne (LOLPE); [10]): 90%
Post-emergence herbicidal activity against wheat (percentage phytotoxicity), +CQC (wheat): 10%
percent phytotoxicity (crop damage) to wheat at 250 g/ha (wheat): 60%

Cc1cc(C)c(C2C(=O)CC(CCNC(=O)N(C)C)C2=O)c(C)c1 (centres unmarked) [Compound A31]
pest or weed control at 250 g/ha [1, 3]: 90%
pest or weed control at 250 g/ha [1, 4]: 80%
pest or weed control at 250 g/ha (Avena fatua (AVEFA); [5]): 90%
pest or weed control at 250 g/ha (Avena fatua (AVEFA); [6]): 70%
pest or weed control at 250 g/ha [2, 7]: 70%
pest or weed control at 250 g/ha [2, 8]: 90%
pest or weed control at 250 g/ha (Lolium perenne (LOLPE); [9]): 90%
pest or weed control at 250 g/ha (Lolium perenne (LOLPE); [10]): 100%
Post-emergence herbicidal activity against wheat (percentage phytotoxicity), +CQC (wheat): 10%
percent phytotoxicity (crop damage) to wheat at 250 g/ha (wheat): 70%

Cc1cc(C)c(C2C(=O)CC(CCNC(=O)Nc3ccccc3F)C2=O)c(C)c1 (centres unmarked) [Compound A45]
pest or weed control at 250 g/ha [1, 3]: 20%
pest or weed control at 250 g/ha [1, 4]: 0%
pest or weed control at 250 g/ha (Avena fatua (AVEFA); [5]): 0%
pest or weed control at 250 g/ha (Avena fatua (AVEFA); [6]): 0%
pest or weed control at 250 g/ha [2, 7]: 40%
pest or weed control at 250 g/ha [2, 8]: 80%
pest or weed control at 250 g/ha (Lolium perenne (LOLPE); [9]): 80%
pest or weed control at 250 g/ha (Lolium perenne (LOLPE); [10]): 90%
Post-emergence herbicidal activity against wheat (percentage phytotoxicity), +CQC (wheat): 0%
percent phytotoxicity (crop damage) to wheat at 250 g/ha (wheat): 0%

Cc1cc(-n2cc(Cl)cn2)cc(C)c1C1C(=O)CC(CCNC(=O)C2=NOC(C)(C)C2)C1=O (centres unmarked) [Compound A43]
pest or weed control at 250 g/ha [1, 3]: 90%
pest or weed control at 250 g/ha [1, 4]: 90%
pest or weed control at 250 g/ha (Avena fatua (AVEFA); [5]): 100%
pest or weed control at 250 g/ha (Avena fatua (AVEFA); [6]): 90%
pest or weed control at 250 g/ha [2, 7]: 100%
pest or weed control at 250 g/ha [2, 8]: 90%
pest or weed control at 250 g/ha (Lolium perenne (LOLPE); [9]): 100%
pest or weed control at 250 g/ha (Lolium perenne (LOLPE); [10]): 90%
Post-emergence herbicidal activity against wheat (percentage phytotoxicity), +CQC (wheat): 50%
percent phytotoxicity (crop damage) to wheat at 250 g/ha (wheat): 90%

Cc1cc(C)c(C2C(=O)CC(CCNC(=O)NC(=O)c3ccccc3C#N)C2=O)c(C)c1 (centres unmarked) [Compound A67]
pest or weed control at 250 g/ha [1, 4]: 0%
pest or weed control at 250 g/ha (Avena fatua (AVEFA); [6]): 0%
pest or weed control at 250 g/ha [2, 8]: 30%
pest or weed control at 250 g/ha (Lolium perenne (LOLPE); [10]): 20%
Post-emergence herbicidal activity against wheat (percentage phytotoxicity), +CQC (wheat): 0%
percent phytotoxicity (crop damage) to wheat at 250 g/ha (wheat): 0%

Cc1cc(C)c(C2C(=O)CC(CCNC(=O)NCc3ccccc3)C2=O)c(C)c1 (centres unmarked) [Compound A7]
pest or weed control at 250 g/ha [1, 3]: 10%
pest or weed control at 250 g/ha [1, 4]: 0%
pest or weed control at 250 g/ha (Avena fatua (AVEFA); [5]): 90%
pest or weed control at 250 g/ha (Avena fatua (AVEFA); [6]): 0%
pest or weed control at 250 g/ha [2, 7]: 90%
pest or weed control at 250 g/ha [2, 8]: 0%
pest or weed control at 250 g/ha (Lolium perenne (LOLPE); [9]): 70%
pest or weed control at 250 g/ha (Lolium perenne (LOLPE); [10]): 0%
Post-emergence herbicidal activity against wheat (percentage phytotoxicity), +CQC (wheat): 0%
percent phytotoxicity (crop damage) to wheat at 250 g/ha (wheat): 20%

Cc1cc(C)c(C2C(=O)CC(CCNC(=O)Nc3ccc(F)cn3)C2=O)c(C)c1 (centres unmarked) [Compound A12]
pest or weed control at 250 g/ha [1, 3]: 90%
pest or weed control at 250 g/ha [1, 4]: 90%
pest or weed control at 250 g/ha (Avena fatua (AVEFA); [5]): 90%
pest or weed control at 250 g/ha (Avena fatua (AVEFA); [6]): 90%
pest or weed control at 250 g/ha [2, 7]: 90%
pest or weed control at 250 g/ha [2, 8]: 100%
pest or weed control at 250 g/ha (Lolium perenne (LOLPE); [9]): 90%
pest or weed control at 250 g/ha (Lolium perenne (LOLPE); [10]): 90%
Post-emergence herbicidal activity against wheat (percentage phytotoxicity), +CQC (wheat): 80%
percent phytotoxicity (crop damage) to wheat at 250 g/ha (wheat): 90%

Cc1cc(C)c(C2C(=O)CC(CCNC(=O)NC(C)(C)C)C2=O)c(C)c1 (centres unmarked) [Compound A5]
pest or weed control at 250 g/ha [1, 3]: 80%
pest or weed control at 250 g/ha [1, 4]: 100%
pest or weed control at 250 g/ha (Avena fatua (AVEFA); [5]): 90%
pest or weed control at 250 g/ha (Avena fatua (AVEFA); [6]): 80%
pest or weed control at 250 g/ha [2, 7]: 100%
pest or weed control at 250 g/ha [2, 8]: 90%
pest or weed control at 250 g/ha (Lolium perenne (LOLPE); [9]): 90%
pest or weed control at 250 g/ha (Lolium perenne (LOLPE); [10]): 90%
Post-emergence herbicidal activity against wheat (percentage phytotoxicity), +CQC (wheat): 20%
percent phytotoxicity (crop damage) to wheat at 250 g/ha (wheat): 50%

Cc1cc(C)c(C2C(=O)CC(CCNC(=S)NC(=O)c3ccccc3)C2=O)c(C)c1 (centres unmarked) [Compound A91]
pest or weed control at 250 g/ha [1, 3]: 80%
pest or weed control at 250 g/ha [1, 4]: 60%
pest or weed control at 250 g/ha (Avena fatua (AVEFA); [5]): 10%
pest or weed control at 250 g/ha (Avena fatua (AVEFA); [6]): 60%
pest or weed control at 250 g/ha [2, 7]: 0%
pest or weed control at 250 g/ha [2, 8]: 70%
pest or weed control at 250 g/ha (Lolium perenne (LOLPE); [9]): 70%
pest or weed control at 250 g/ha (Lolium perenne (LOLPE); [10]): 70%
Post-emergence herbicidal activity against wheat (percentage phytotoxicity), +CQC (wheat): 70%
percent phytotoxicity (crop damage) to wheat at 250 g/ha (wheat): 70%
